Test results published in patent US20230338347A1, “New Use of Inhibitors of the Notch Signalling Pathway” (Cellestia Biotech AG, priority 2020, published 2023).
Where a name gives a salt, the structure may show the parent alone.

Tests used:
[1] = Phase I/IIA dose escalation: visual symptoms (eye-related AE) per dose group; assay type: in vivo, human
Procedure: The dosing will be 15, 30, 60, 120, 170, 250, 400, or 600 mg of the 6-(4-Tert-Butylphenoxy)Pyridin-3-Amine monohydrochloride salt or higher per day or alternatively 20, 40, 60, 120, 170, 250, 400, or 600 mg of the 6-(4-Tert-Butylphenoxy)Pyridin-3-Amine monohydrochloride salt or higher per day. Dosing of 15, 30, 60, 120, 170, 250, 400, or 600 mg of the 6-(4-Tert-Butylphenoxy)Pyridin-3-Amine monohydrochloride salt corresponds to dosing of 13, 26, 52, 104, 148, 217, 348, or 522 mg of 6-(4-Tert-Butylphenoxy)Pyridin-3-Amine (free base). Dosing of 20, 40, 60, 120, 170, 250, 400, or 600 mg of the 6-(4-Tert-Butylphenoxy)Pyridin-3-Amine monohydrochloride salt corresponds to dosing of 17, 35, 52, 104, 148, 217, 348, or 522 mg of 6-(4-Tert-Butylphenoxy)Pyridin-3-Amine (free base). For this study, 6-(4-Tert-Butylphenoxy)Pyridin-3-Amine monohydrochloride salt was formulated into a capsule having a drug load of 5, 10, 20, 50 and 100 mg, respectively intended to be administered orally. • Patients will meet the following criteria:
In the dose escalation cohort, patients in dose group (DG) 4 receiving 120mg of 6-(4-Tert-Butylphenoxy)Pyridin-3-Amine monohydrochloride salt and patients in higher dose groups reported visual symptoms with increasing incidence. It is believed that the occurrence of visual symptoms is a pharmacodynamic effect of 6-(4-Tert-Butylphenoxy)Pyridin-3-Amine. This makes a dose of 120 mg and higher of the 6-(4-Tert-Butylphenoxy)Pyridin-3-Amine monohydrochloride salt the therapeutic dose of choice.

NOTCH target genes [2] = assay: NOTCH target gene expression in whole blood of Phase 1 patients (Nanostring); assay type: in vivo; conditions: Homo sapiens, 600 mg dose group, CCND3, HEY1, IL7Rα, NOTCH1, NOTCH2, read-out: Inhibition range, NOTCH target down regulation
Procedure: In addition to hair follicles, gene expression profiling to measure changes in NOTCH target genes was also performed in whole blood as an alternative surrogate tissue.
Whole blood samples for gene expression analysis were collected in PAXgene Blood RNA Tubes and RNA extracted following their standard Blood RNA Kit for silica-membrane-based RNA isolation and purification (Beckton Dickinson). RNA samples were tested for gene expression profiling on a Nanostring platform.
(§1) Table 1: NOTCH target down regulation in hair follicles and blood cells from Phase 1 patients. Target gene down regulation (CCND3, cyclin-D3; HES1, Hairy and enhance of split-1; HES4, Hairy and enhance of split-4; HESS, Hairy and enhance of split-5; HEY1, hes related family bHLH transcription factor with YRPW motif1; HEY2; hes related family bHLH transcription factor with YRPW motif 2; HEYL, hes-related family bHLH transcription factor with YRPW motif-like; IL7R-α, Interleukin-7 receptor subunit alpha; NOTCH1; NOTCH2; NRARP (NOTCH Regulated Ankyrin Repeat Protein): […]

NOTCH target genes [3] = assay: NOTCH target gene expression in hair follicles of Phase 1 patients (Nanostring); assay type: in vivo, human; conditions: Homo sapiens, hair follicle, read-out: Inhibition range, NOTCH target down regulation
Text: Hair follicles were obtained at pre-defined time points to measure changes in NOTCH target genes expression by 6-(4-Tert-Butylphenoxy)Pyridin-3-Amine treatment. NOTCH target gene down-regulation in hair follicles has been reported to be a robust and indicative biomarker that correlates with both clinical efficacy and the incidence of DLTs (Tanis K Q, et al. Clin Pharmacol Ther 2016; 99(4):370-80; Cook N, et al. BJC 2018; 118(6):793-801).
Between 5 to 10 hairs were plucked to extract the complete and undamaged hairbulb (full hair follicle), and processed as described in Camidge D R, et al. Br J Cancer 2005; 92:1837-41 and Bradley B J, et al. Mol EcolNotes 2005; 5:961-4. RNA concentration was measured by Qubit (RNAHighSensitivity), and RNA integrity was evaluated on a RNA 6000 Pico chip. RNA samples were tested for gene expression profiling on a Nanostring platform.
as §1

CC(C)(C)c1ccc(Oc2ccc(N)cn2)cc1 [6-(4-Tert-Butylphenoxy)Pyridin-3-Amine monohydrochloride]
Eye-related AE, % on total pts per DG ([1]; DG4 (120 mg)): 43%
dose at and above which visual symptoms were reported (increasing incidence) ([1]; DG4 and higher dose groups, once daily oral): ≥ 120 mg
Eye-related AE, % on total pts per DG ([1]; DG5 (170 mg)): 67%
Eye-related AE, % on total pts per DG ([1]; DG6 (250 mg)): 75%
Eye-related AE, % on total pts per DG ([1]; DG7 (400 mg)): 67%
Eye-related AE, % on total pts per DG ([1]; DG8 (600 mg)): 67%
Adaptative visual difficulty, #AEs ([1]; all dose groups): 1
Blurred vision, #AEs ([1]; all dose groups): 6
Eye disorder, #AEs ([1]; all dose groups): 2
Eye-related AE Total, #AEs ([1]; all dose groups): 26
Intermittent color vision deficiency/ Intermittent blurred vision, #AEs ([1]; all dose groups): 2
Photophobia, #AEs ([1]; all dose groups): 2
Photopsy, #AEs ([1]; all dose groups): 3
Transient defect in accommodation to dim light, #AEs ([1]; all dose groups): 7
Visual alteration, #AEs ([1]; all dose groups): 2
Visual disturbance in light exposure, #AEs ([1]; all dose groups): 1
inhibition at 600 mg (NOTCH target genes [2]): ≤ 50%
inhibition at 60 mg (NOTCH target genes [3]; 60 mg dose group, HES4, HES5, NRARP): ≤ 80%
inhibition at 120 mg (NOTCH target genes [3]; 120 mg dose group, CCND3, HES4, HES5, HEYL, HEY2): ≤ 95%
inhibition at 170 mg (NOTCH target genes [3]; 170 mg dose group, HES1): ≤ 75%
inhibition at 250 mg (NOTCH target genes [3]; 250 mg dose group, CCND3, HES1, HEY2, NRARP): ≤ 80%
